Experiments:
healthy RBCs = experiment: microfluidic assay of RBC mediated microvascular occlusion (micropillar arrays with integrated electrical impedance measurement); assay type: cell-based, human; conditions: RBCs stiffened with 0.08% w/v glutaraldehyde 10 min, 20% hematocrit, mean±SD, N=4; for RBC Electrical Impedance Index (REI): impedance at 10 kHz
Method: In order to validate the microfluidic device functionality of assessing RBC mediated microvascular occlusion, healthy RBCs were isolated and treated with 0.08% w/v glutaraldehyde (Sigma Aldrich) for 10 min at room temperature. The glutaraldehyde-stiffened RBCs were then washed with PBS, mixed with untreated healthy RBCs from the same donor at either 1% or 2% v/v ratio, and re-suspended in PBS at 20% hematocrit for testing. Healthy RBCs from the same healthy donor were included in the study design as control.
Microchannels were initially washed with absolute ethanol (100%) and PBS, which was followed by incubation with 2% bovine serum albumin (BSA) overnight to prevent non-specific binding of RBCs to the channel walls. A Flow-EZ™ microfluidic flow control system (Fluigent, Lowell, MA) was used to regulate the flow (FIG. 12). An impedance analyzer (Agilent 4294A, Santa Clara, CA) coupled with a custom printed-circuit board was used to perform electrical impedance measurements. Briefly, impedance magnitude across each of the 3-μm to 10-μm micropillar arrays was recorded over the frequency range of 40 Hz-1 MHz before introducing blood into the microchannel and after completing the washing step. […]
Prior to the experiment, PBS was perfused through the microchannel at 100 mBar for 15 min to allow for any volumetric changes of the microchannel. Thereafter, the baseline impedance reading was obtained for each micropillar array without stopping the PBS flow. […] A second impedance reading was then obtained for each micropillar array upon the conclusion of the post-perfusion wash step. […] For select experiments, the electrical impedance of the 3-μm micropillar array was continuously monitored over the entire duration of the experiment.
To determine the association between the electrical impedance change and microcapillary occlusion in the microchannel, an Olympus IX83 inverted motorized microscope with Olympus CellSense live-cell imaging and analysis software were used to obtain high-resolution microscopic images. The images were further processed by Adobe Photoshop software (San Jose, CA), in which the obstructed microcapillaries were manually counted. […]
[formula] [formula] • where, • n=Total number of capillary networks within the area of interest • i=The i^th capillary network within the area of interest • Oi; =The number of microcapillary occlusion in the i^th capillary network • Ni=Total number of microcapillaries in the i^th capillary network • Ii1=The first electrical impedance reading of the i^th capillary network • Ii2=The second electrical impedance reading of the i^th capillary network […]

RBC = experiment: MIRCA functional assay of RBC deformability, quantitative microcapillary occlusion (Occlusion Index); assay type: cell-based, human; conditions: people with variant SCD (HbSC) and SCA (HbSS)
Description: Abnormal RBC deformability contributes to the underlying pathophysiology of SCD, and we tested this in variant SCD and sickle cell trait (SCT). We have developed MIRCA, a novel functional assay of RBC deformability, assessed by quantitative microcapillary occlusion (‘Occlusion Index, OI’, FIG. 18). This in vitro test recapitulates key geometric features of the capillary bed: >80,000 narrow openings and side anastomoses ‘on-a-chip’, under normoxia or hypoxia (FIG. 18).

[1] = sample 98% healthy RBCs and 2% stiff RBCs
[2] = sample 99% healthy RBCs and 1% stiff RBCs

Structure (SMILES) | RBC Electrical Impedance Index (REI) (healthy RBCs; [1]) [%] | RBC Occlusion Index (ROI) (healthy RBCs; [1]) [%] | RBC Electrical Impedance Index (REI) (healthy RBCs; [2]) [%] | RBC Occlusion Index (ROI) (healthy RBCs; [2]) [%] | association of RBC Occlusion Index (OI) with drug use (RBC)
O=CCCCC=O [glutaraldehyde] | 20.99 | 36.16 | 9.40 | 17.15 | –
NC(=O)NO [hydroxyurea] | – | – | – | – | inversely associated
